{"source": "patent US11273206B2", "about": "“Targeting of pharmaceutical agents to pathologic areas using bifunctional fusion polypeptides” (Counterpoint Biomedica LLC, priority 2014, dated 2022)", "key": {"subcutaneous tumors": {"tested_on": "subcutaneous tumors", "experiment": "Tumor targeting of FITC-labeled collagen-binding construct after intravenous infusion", "type": "in vivo", "settings": "intravenous infusion into the tail vein of nude mice; FIGS. 3C-3D"}, "[1]": {"tested_on": "subcutaneous human pancreatic cancer xenografts", "settings": "paclitaxel without aptamer; cited from earlier work"}, "[2]": {"tested_on": "Locally Recurrent or Metastatic Breast Cancer", "settings": "Phase III, once per week; cited from earlier work"}, "[3]": {"tested_on": "subcutaneous human pancreatic cancer xenografts"}, "collagen agarose beads": {"tested_on": "collagen agarose beads", "experiment": "Collagen-agarose column chromatography of mAb-aptamers with fluorescent Rabbit-Anti-Human Abs", "type": "binding", "settings": "FIG. 7B"}, "[4]": {"experiment": "Serum stability (resistance to proteolysis) of mAb-aptamers", "type": "in vitro ADME", "settings": "FIG. 7C", "text": "The serum stability (resistance to proteolysis) of mAb-Aptamer 1, mAb-Aptamer 2 and mAb-Aptamer 4 were further analyzed."}, "Collagen-Agarose beads [5]": {"tested_on": "Collagen-Agarose beads", "experiment": "Collagen-agarose column chromatography of FITC-labeled collagen-binding constructs", "settings": "increasing amounts applied to Collagen-Agarose beads, in vitro; FIG. 3B", "text": "Three fluorescein isothiocyanate (FITC)-labeled collagen-binding constructs were generated and tested. Construct 1 (ac-L1/XC-BD1/L3/FITC) had the sequence of Ac-RRGVHVGWREPSFMALSMPHGGSGK-(FITC) (SEQ ID NO: 45); Construct 2(ac-L1/XC-BD2/L3/FITC) had the sequence of Ac-RRGVHVGWREPGRMELNMPHGGSGK-(FITC) (SEQ ID NO: 46); Construct 3 (ac-L2/XC-BD2/L3/FITC) had the sequence of Ac-RRGVRVAWREPGRMELNMPHGGSGK-(FITC) (SEQ ID NO: 47). […] Increasing amounts of these constructs were applied to the chromatography columns of Collagen-Agarose beads, followed by successive washes with (1) PBS, (2) PBS/PBS, Tween-20, BSA. The retention of the constructs to the column was documented by use of a blue-light transilluminator with an amber filter; quantitative data was obtained with a Quantus fluorometer."}, "[6]": {"experiment": "Serum stability (resistance to proteolysis) of Tx-Apts", "type": "in vitro ADME", "settings": "FIG. 4C"}, "Collagen-Agarose beads [7]": {"tested_on": "Collagen-Agarose beads", "experiment": "Collagen-agarose chromatography of RNA-Apts with Oregon Green 488 labeled oligonucleotides", "type": "binding", "settings": "for retention of labeled oligonucleotides on collagen-agarose mini-columns: FIG. 10C; for depletion of fluorescently labeled oligonucleotides from the column eluates: increasing amounts of RNA-Apt, FIG. 10B", "method": "Short oligonucleotides labeled with Oregon Green 488 were incubated with increasing amounts of RNA-Apt 07 or RNA-Apt 08 in PBS for 30 min at 30° C. and then applied to the chromatography column of collagen-agarose beads, followed by successive washes with (1) PBS, (2) PBS/PBS, Tween-20, BSA. The retention to the column was documented by use of a blue-light transilluminator with an amber filter; quantitative data was obtained with a Quantus fluorometer."}}, "note": "Where a SMILES comes first, the peptide text is derived from it. Primed or numbered codes have the meaning given here. Where no end group is shown, it is not given here. [ ]: non-standard residue; d: D form. The star is where a group is joined. FITC = O=C1OC2(c3ccc(O)cc3Oc3cc(O)ccc32)c2ccc(NC(=S)*)cc21; FITC′ = fluorescein isothiocyanate label; PEG = not defined here", "data": [{"molecule": "CSCC[C@H](NC(=O)[C@H](CCCNC(=N)N)NC(=O)CNC(=O)[C@@H]1CCCN1C(=O)[C@H](CCC(=O)O)NC(=O)[C@H](CCCNC(=N)N)NC(=O)[C@H](Cc1c[nH]c2ccccc12)NC(=O)CNC(=O)[C@@H](NC(=O)[C@H](Cc1c[nH]cn1)NC(=O)[C@@H](NC(=O)CNC(=O)[C@H](CCCNC(=N)N)NC(=O)[C@H](CCCNC(=N)N)NC(C)=O)C(C)C)C(C)C)C(=O)N[C@@H](CCC(=O)O)C(=O)N[C@@H](CC(C)C)C(=O)N[C@@H](CC(N)=O)C(=O)N[C@@H](CCSC)C(=O)N1CCC[C@H]1C(=O)N[C@@H](Cc1c[nH]cn1)C(=O)NCC(=O)NCC(=O)N[C@@H](CO)C(=O)NCC(=O)N[C@@H](CCCCNC(=S)Nc1ccc2c(c1)C(=O)OC21c2ccc(O)cc2Oc2cc(O)ccc21)C(=O)O", "note": "[Construct 2, Ac-RRGVHVGWREPGRMELNMPHGGSGK-(FITC)] (Ac-RRGVHVGWREPGRMELNMPHGGSGK(FITC)-OH)", "values": [{"measurement": "targeting to subcutaneous tumors (fluorescence)", "setting": "subcutaneous tumors", "result": "efficiently targeted to subcutaneous tumors"}]}, {"molecule": "CC(=O)O[C@H]1C(=O)[C@@]2(C)[C@H]([C@H](OC(=O)c3ccccc3)[C@]3(O)C[C@H](OC(=O)[C@H](O)[C@@H](NC(=O)c4ccccc4)c4ccccc4)C(C)=C1C3(C)C)[C@]1(OC(C)=O)CO[C@@H]1C[C@@H]2O", "note": "[paclitaxel]", "values": [{"measurement": "normal effective dose of paclitaxel in mice", "setting": "[1]", "result": 10, "unit": "mg/kg"}, {"measurement": "clinical performance compared with Abraxane", "setting": "[2]", "result": "just as good or better than Abraxane"}, {"measurement": "toxicity compared with Abraxane", "setting": "[2]", "result": "significantly less toxicity"}, {"measurement": "active dose as fraction of the low metronomic doses commonly used", "setting": "[3]; targeted paclitaxel treated mice", "result": "1/10"}, {"measurement": "active dose as fraction of the normal effective dose of paclitaxel in mice", "setting": "[3]; used with Taxol-aptamer", "result": "1/50"}, {"measurement": "dose at which paclitaxel exhibited anti-angiogenic activity", "setting": "[3]; used with Taxol-aptamer, FIG. 6C", "result": 0.2, "unit": "mg/kg"}]}, {"molecule": "(PEG)-[C-A-R-R-G-V-H-V-G]-W-R-E-P-G-R-M-E-L-N-M-P-H-[G-G-S-G-G]-H-W-R-G-W-V-A-[G-G-S-G-G]-H-W-R-G-W-V-A-p-t ({PEG}-CARRGVHVGWREPGRMELNMPHGGSGGHWRGWVAGGSGGHWRGWVA[dP][dT]; reading uncertain; also: printed as (PEG)-[C-A-R-R-G-V-H-V-G]-W-R-E-P-G-R-M-E-L-N-M-P-H-[G-G-S-G-G]-H-W-R-G-W-V-A-[G-G-S-G-G]-H-W-R-G-W-V-A-p-t) [mAb-Aptamer 4]", "values": [{"measurement": "binding of antibodies to the collagen beads", "setting": "collagen agarose beads", "result": "higher binding"}, {"measurement": "serum stability (resistance to proteolysis)", "setting": "[4]", "result": "greatest serum stability"}]}, {"molecule": "Ac-RRGVHVGWREPSFMALSMPHGGSGK-(FITC) (Ac-RRGVHVGWREPSFMALSMPHGGSGK(FITC′)) [Construct 1]", "values": [{"measurement": "binding to collagen (retention of the constructs to the column)", "setting": "Collagen-Agarose beads [5]", "result": "bound to collagen in a dose dependent manner"}]}, {"molecule": "Ac-[dR][dR]GVHVGWREPGRMELNMPHGGSGRGVGIMKACGRTRHTVR[dM]G (N-terminus assumed) [Tx-Apt2, Ac-[r-r-G-V-H-V-G]-W-R-E-P-G-R-M-E-L-N-M-P-H-[G-G-S-G]-R-G-V-G-I-M-K-A-C-G-R-T-R-H-T-V-R-m-G]", "values": [{"measurement": "serum stability (resistance to proteolysis) over time", "setting": "[6]", "result": "most stable"}]}, {"molecule": "RRGVHVGWREPSFMALSMPHGGRRRRRRRRR [RNA-Apt 08]", "values": [{"measurement": "retention of labeled oligonucleotides on collagen-agarose mini-columns", "setting": "Collagen-Agarose beads [7]", "result": "retaining the labeled oligonucleotides on the collagen-agarose mini-columns"}, {"measurement": "depletion of fluorescently labeled oligonucleotides from the column eluates", "setting": "Collagen-Agarose beads [7]", "result": "depleted fluorescently labeled-oligonucleotides from the eluates"}]}, {"molecule": "RRRRRRRRRRRGVHVGWREPSFMALSMPHGG [RNA-Apt 07]", "values": [{"measurement": "retention of labeled oligonucleotides on collagen-agarose mini-columns", "setting": "Collagen-Agarose beads [7]", "result": "retaining the labeled oligonucleotides on the collagen-agarose mini-columns"}, {"measurement": "depletion of fluorescently labeled oligonucleotides from the column eluates", "setting": "Collagen-Agarose beads [7]", "result": "depleted fluorescently labeled-oligonucleotides from the eluates"}]}, {"molecule": "r-r-GVHVGWREPGRMELNMPHGGSGGHWRGWVAGGSGGHWRGWV-a-a ([dR][dR]GVHVGWREPGRMELNMPHGGSGGHWRGWVAGGSGGHWRGWV[dA][dA]) [mAb-Aptamer 2]", "values": [{"measurement": "binding of antibodies to the collagen beads", "setting": "collagen agarose beads", "result": "higher binding"}]}]}
